For orientation: IC50 means the point on the concentration scale where inhibition reaches its midpoint.

The text below walks through data of paper PMC11912270, “Synthesis and SAR Studies of Acyl-Thiourea Platinum(II) Complexes Yield Analogs with Dual-Stage Antiplasmodium Activity” (ACS Medicinal Chemistry Letters, 2025).

Data set [1] can be described thus: Glutathione binding UV-Vis titration. Particulars: GSH binding.
Procedure: The binding of glutathione (GSH) to the platinum(II) complexes was monitored by observing the decrease in the metal-to-ligand-charge transfer (MLCT) band via a UV-Vis spectrophotometer.8 For this, 1–10 µL aliquots of GSH (0.4 M) in a PBS and DMSO (0.01% DMSO, v/v) mixture was added to a cuvette containing the relevant metal complex (50 µM) in the same solvent mixture. After each addition, the solution was stirred and allowed to incubate at room temperature for 3–5 minutes before recording the absorption spectrum between the wavelength range of 250–700 nm. These titrations were performed in triplicate and the average binding constants (logK) were reported with the standard error of the mean (SEM). The logK values were calculated from the best-fit model (describing a 1:1 association) using Equation 1.
A short description of data set [2]: Single-point microsomal metabolic stability, mouse. The data set is classed as in vitro ADME. To be noted: mouse liver microsomes, 1 µM. As for the experimental part: 1.8. Microsomal metabolic stability studies […]
rat IGS, Xenotech), and mouse (male mouse CD1, Xenotech) liver microsomes (0.4 mg/ml) for 30 min at 37 °C. Reactions were quenched by adding ice-cold acetonitrile containing […]
disappearance of the parent compound. Half-life, clearance, and hepatic excretion ratios were determined using standard equations.6,7 Propranolol. […]
(In general: Liver microsomes are vesicles of endoplasmic reticulum, rich in cytochrome P450 enzymes.)

Data set [3] concerns Chinese hamster ovary (CHO) cell line. In words: MTT cytotoxicity assay. The data set is classed as cell-based. To be noted: cytotoxicity, MTT, 48 h; N, n = 1, 3; read-out: CHO IC50. (Formazan colour is commonly taken as a measure of viable cells.)
Data set [4] is described as follows: Cyclic voltammetry. The data set is classed as physicochemical. The source says:
It is known that Fe^2+/Fe^3+ redox chemistry has an important role in the bioactivity of ferrocene derivatives.[33] The production of reactive oxygen species (ROS) is one of the modes of action of ferroquine and other ferrocene derivatives[34] and is linked to the correlation between their bioactivity and electrochemical behavior. We determined whether a similar correlation could be made for the mixed-ligand platinum(II) complexes reported herein given that metal centers have the potential to be oxidized and reduced. The electrochemistry of the complexes was studied using cyclic voltammetry (CV), which uses a triangular potential waveform. The CV experiments were performed in either dry MeOH or DMF containing tetrabutylammonium chloride (TBACl) as the supporting electrolyte. The working electrode was glassy carbon with a platinum wire as the counter electrode and Ag/AgCl as the reference. The anodic (Epa) and cathodic (Epc) peak potentials at 0.1 V/s and half-wave potentials (E1/2) were measured (Table 3). All of the tested complexes undergo reversible one-electron Pt^2+/Pt^+ reductions (Figures S38–S46). Complexes C2, C4, and C8 undergo a second nonreversible reduction (Epc2), which is most likely ligand-based and linked to reductions of the substituent on the bpy. Looking at SAR2, the more electron-withdrawing the substituent, the […] the E1/2 (V vs Fe/Fe^+) value was. This trend was expected, as a more electron-withdrawing substituent reduces the electron density around the metal center, making it easier for the metal to be reduced from Pt^2+ to Pt^+. […] This is also the case for other bpy-containing platinum(II) complexes that only undergo reductions.[35],[36] […]
For the cyclic voltammetry experiments a solution of the test compound (1 x 10-3) in DMSO (3 mL) is added to the electrolyte solution (0.1 M tetrabutylammonium chloride (TBACl) in DMSO). The electrochemical measurements were obtained using a Basi Epsilon Eclipse Electrochemical Analyzer Potentiostat and the CV graphs were generated using Excel. The working electrode was glassy carbon (GC) with platinum wire as the counter electrode (CE) and Ag/AgCl as the reference. […]

For data set [5], the system named is PfK1 ABS parasites. The data set is classed as cell-based, Plasmodium falciparum. As for the experimental part:
The parasites were incubated under drug […]
incubation, parasite survival was determined by adding equal volumes of parasite suspension (100 µL) and SYBR Green I lysis buffer (0.2% µL/mL of 10 000x SYBR Green I, 20 mM Tris-HCl, pH 7.5, 5 mM EDTA, 0.008% saponin (w/v) and 0.08% Triton x-100). This was incubated for 1 hour at room temperature in the dark. […]

For data set [6], the system named is ABS parasites. In words: Dual point activity against ABS parasites. To be noted: single biological repeat. The data set is classed as cell-based, Plasmodium falciparum. The source says: Table S2: Dual point activity of platinum(II) complexes against ABS parasites, early- and late-
stage gametocytes. Values are averaged from technical triplicates performed for a single

Data set [7] in a line: In vivo pharmacokinetics in female Balb/C mice. Details: species or system mouse. The procedure: In this regard, three replicates of female Balb/C mice were dosed at either 3 mg/kg (intravenously, i.v.) or 10 mg/kg (orally, p.o.). Blood was sampled at specific time intervals over 48 h. The corresponding PK parameters were calculated using noncompartmental analysis (Table 2). […]
1.9. Determination of pharmacokinetic parameters […]
parameters. Compounds were administered either intravenously as a bolus solution […]
Mice were allowed to eat and access water freely.
To determine the PK parameters, blood samples were collected from the tail vein of the mice into heparinized microcentrifugation tubes at distinct sampling times (0.17, 0.5, 1, 3, 5, 7, 9, 24, and 48 hours for intravenous dosing; 0.5, 1, 3, 5, 7, 9, 24 and 48 hours for oral dosing). All samples were stored at -80 °C until extraction.
For the bioanalysis, frozen whole blood was thawed at room temperature and 1-0 µL of each sample was extracted by protein precipitation (using 100 µL of acetonitrile containing 10 ng/ml of the internal standard, MMV394902). The sample was centrifuged. Supernatants of each sample were injected into the LC-MS/MS column for analysis. The analytical limit of quantitation (LOQ) was 2 ng/mL. The pharmacokinetic parameters were calculated using noncompartmental analysis using PK Solutions 2.0 (Summit Research Services, Montrose, CO, USA) and a curve stripping-based method. […]
1.11. Plasma protein binding (PPB)
To determine the percentage of test compound bound to plasma, ultracentrifugation was used.
The test compound (5 µM of a 10 mM DMSO stock) was used to spike pooled human plasma.
An aliquot of the spiked solution was removed immediately and quenched with carbamazepine, […]

Structures are written as SMILES.

Turning to `Nc1cc[n+]2c(c1)-c1cc(N)cc[n+]1[Pt-2]21[O+]=C(c2ccccc2)N=C(N(CCO)CCO)[S]1.[Cl-]` [C6], in data set [1] (N = 3, PBS), the “Average logK ± SEM” value is reported as 2.58 ± 0.19. Also, the “LogK N = 1” value in data set [1] (replicate N = 1) amounted to 2.80. In data set [1] (replicate N = 2), the “LogK N = 2” value is 2.21. The “LogK N = 3” value in data set [1] (replicate N = 3) is recorded as 2.74. For the same molecule, in data set [2], the “Microsomal metabolic stability (% remaining after 30 min) Mouse” value turned out to be 94 % remaining. Also, the concentration for half-maximal inhibition (IC50) in data set [3] is greater than 50 µM; in data set [5] (ABS, SYBR Green I, 96 h, mean ± S.E.), 0.102 ± 0.013 µM. In addition, the Epa1 result in data set [4] (anodic peak potential, 0.1 V/s) is “–1.138 V”. The Epc1 entry in data set [4] (cathodic peak potential, 0.1 V/s) is reported as “–1.068 V”. The values for the E1/2 result in data set [4] (half-wave potential) and in data set [4] (half-wave potential corrected to ferrocene) were “–1.103 V vs Ag/Ag^+” and “–1.643 V vs Fe/Fe^+”, respectively. In addition, the “RI (resistance index)” value in data set [5] (RI = PfK1 IC50/PfNF54 IC50) was 2.8. Also, the “ABS (% inhibition) 1 µM” value in data set [6] (1 µM) is 100.7 % inhibition. Also, the “ABS (% inhibition) 5 µM” value in data set [6] (5 µM) was determined as 100.2 % inhibition. Moreover, the CLs i.v. in data set [7] (3 mg/kg i.v.) was determined as 46.4 mL/min/kg. The molecule further displayed a T1/2 i.v. in data set [7] (3 mg/kg i.v.) of 10.8 h. The molecule also returned a T1/2 p.o. in data set [7] (10 mg/kg p.o.) of 12.0 h. Moreover, the Bioavailability in data set [7] (10 mg/kg p.o. vs 3 mg/kg i.v.) worked out at 3.8%. In data set [7] (female Balb/C mice, 3 mg/kg i.v.), this molecule returned a Vss i.v. of 45.6 L/kg. The Vssu in data set [7] (i.v., unbound fraction) is 4560 L/kg. This molecule displayed a CLu in data set [7] (p.o., unbound fraction) greater than 1000 mL min^–1 kg^–1. The molecule also returned a CLu i.v. in data set [7] (unbound fraction, Clu = Cls/Fu, i.v.) greater than 1000 mL/min/kg. Moreover, the Vssu i.v. in data set [7] (unbound fraction, Vssu = Vss/Fu, 3 mg/kg i.v.) was found to be 4560 L/kg.
